# Laboratory results taken from ChEMBL document CHEMBL1201862, “PubChem BioAssay data set” (2004).
#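 Briefly, cells in 96-well plates were exposed to five compound concentrations for 48 h, and endpoints were estimated by linear interpolation. Abbreviation: GI50, concentration required for 50% inhibition of growth.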 Calls of active or inactive are those of the source. No stated cut-off is given here; in the data, active = GI50 up to about 1.1 µM and inactive = higher.
# How the values were obtained:
# Assay in all cases: NCI anticancer screen, dose series, 48 h
# EKVX = tested on: EKVX
# HOP-92 = tested on: HOP-92
# HT-29 = tested on: HT-29
# Hs-578T = tested on: Hs-578T
# IGROV-1 = tested on: IGROV-1
# M14 = tested on: M14
# NCI-H226 = tested on: NCI-H226
# NCI-H23 = tested on: NCI-H23
# NCI-H460 = tested on: NCI-H460
# OVCAR-4 = tested on: OVCAR-4
# PC-3 = tested on: PC-3
# SF-295 = tested on: SF-295
# SF-539 = tested on: SF-539
# SNB-19 = tested on: SNB-19
# SNB-75 = tested on: SNB-75
# SR = tested on: SR
# UACC-62 = tested on: UACC-62
Compound,GI50 (EKVX),GI50 (HOP-92),GI50 (HT-29),GI50 (Hs-578T),GI50 (IGROV-1),GI50 (M14),GI50 (NCI-H226),GI50 (NCI-H23),GI50 (NCI-H460),GI50 (OVCAR-4),GI50 (PC-3),GI50 (SF-295),GI50 (SF-539),GI50 (SNB-19),GI50 (SNB-75),GI50 (SR),GI50 (UACC-62)
C/C(=N/NC(=S)Nc1cccc(C)c1)c1ccccn1,0.0685 µM (active),1.17 µM (inactive),< 0.01 µM (active),3.82 µM (inactive),< 0.01 µM (active),< 0.013 µM (active),0.0582 µM (active),< 0.01 µM (active),0.284 µM (active),1.98 µM (inactive),< 0.01 µM (active),0.296 µM (active),1.57 µM (inactive),0.977 µM (active),2.11 µM (inactive),< 0.01 µM (active),0.331 µM (active)
Cc1c(Br)c(Br)c(C)[s+]1[O-],15.1 µM (inactive),45.9 µM (inactive),15.4 µM (inactive),28.5 µM (inactive),26.7 µM (inactive),13.4 µM (inactive),28.4 µM (inactive),25.3 µM (inactive),14.6 µM (inactive),26.2 µM (inactive),17.5 µM (inactive),20 µM (inactive),5.38 µM (inactive),20.7 µM (inactive),,3.28 µM (inactive),20.4 µM (inactive)
CC1(C)COC(c2cccc(C(O)c3ccc(Cl)cc3)c2)=N1 (stereo unspecified),35.4 µM (inactive),24.9 µM (inactive),17.7 µM (inactive),23.4 µM (inactive),30.5 µM (inactive),19.9 µM (inactive),14.8 µM (inactive),23.9 µM (inactive),29.4 µM (inactive),56.8 µM (inactive),16.6 µM (inactive),,19.4 µM (inactive),32.6 µM (inactive),2.94 µM (inactive),31.3 µM (inactive),19 µM (inactive)
Fc1ccccc1-c1cc(S)c2cc3c(cc2n1)OCO3,10.5 µM (inactive),> 45.7 µM (inactive),17.2 µM (inactive),5.24 µM (inactive),7.93 µM (inactive),6.61 µM (inactive),19.2 µM (inactive),9.55 µM (inactive),4.57 µM (inactive),> 100 µM (inactive),6.08 µM (inactive),7.91 µM (inactive),7.18 µM (inactive),15.2 µM (inactive),,4.34 µM (inactive),3.71 µM (inactive)
O=c1oc2ccccc2cc1-c1nc2ccccc2s1,11.5 µM (inactive),6.65 µM (inactive),11.2 µM (inactive),6.55 µM (inactive),3.33 µM (inactive),16.5 µM (inactive),14.6 µM (inactive),15.6 µM (inactive),7.45 µM (inactive),11.6 µM (inactive),17.2 µM (inactive),8.57 µM (inactive),2.89 µM (inactive),,6.3 µM (inactive),0.491 µM (active),14.6 µM (inactive)
O=c1[nH]n(Cc2ccccc2CCl)c2ccc([N+](=O)[O-])cc12,45.2 µM (inactive),34.5 µM (inactive),34.8 µM (inactive),85.5 µM (inactive),> 100 µM (inactive),39.2 µM (inactive),93.5 µM (inactive),83 µM (inactive),23.8 µM (inactive),37.1 µM (inactive),31.3 µM (inactive),37.8 µM (inactive),58.3 µM (inactive),48.9 µM (inactive),,33.6 µM (inactive),30.5 µM (inactive)
CC(=N\N=C\c1ccccn1)/C(C)=N/N=C(C)/C(C)=N/N=C/c1ccccn1,> 100 µM (inactive),> 100 µM (inactive),> 100 µM (inactive),> 100 µM (inactive),> 100 µM (inactive),> 100 µM (inactive),> 100 µM (inactive),> 100 µM (inactive),> 100 µM (inactive),> 100 µM (inactive),> 100 µM (inactive),> 100 µM (inactive),> 100 µM (inactive),> 100 µM (inactive),> 100 µM (inactive),> 100 µM (inactive),
S=C(N/N=C(/c1ccccc1)c1ccccn1)Nc1ccc(Cl)cc1,0.462 µM (active),2.11 µM (inactive),0.0998 µM (active),0.873 µM (active),0.112 µM (active),0.03 µM (active),0.542 µM (active),,0.531 µM (active),5.06 µM (inactive),0.0476 µM (active),0.627 µM (active),1.45 µM (inactive),3.02 µM (inactive),2.06 µM (inactive),< 0.0204 µM (active),0.59 µM (active)
CC1(C)N=C2C(=O)c3c([nH]c4ccccc34)[C@]3(C)CCC1CC23 (stereo partly specified),> 6.25 µM (inactive),> 6.25 µM (inactive),> 6.25 µM (inactive),> 6.25 µM (inactive),> 6.25 µM (inactive),,> 6.25 µM (inactive),> 6.25 µM (inactive),> 6.25 µM (inactive),> 6.25 µM (inactive),> 6.25 µM (inactive),> 6.25 µM (inactive),> 6.25 µM (inactive),,> 6.25 µM (inactive),> 6.25 µM (inactive),
O=C1c2ccccc2-c2c1c1ccccc1c(=O)n2Cc1ccccc1,> 100 µM (inactive),63.1 µM (inactive),> 100 µM (inactive),43.5 µM (inactive),64.4 µM (inactive),> 100 µM (inactive),> 100 µM (inactive),68.2 µM (inactive),,14.5 µM (inactive),> 100 µM (inactive),93.1 µM (inactive),57.1 µM (inactive),,56.4 µM (inactive),> 100 µM (inactive),46.6 µM (inactive)
COC(=O)[C@@](NC(=O)OCc1ccccc1)([C@H](C)O)C(F)(F)F,> 100 µM (inactive),> 100 µM (inactive),> 100 µM (inactive),> 100 µM (inactive),> 100 µM (inactive),> 100 µM (inactive),> 100 µM (inactive),> 100 µM (inactive),> 100 µM (inactive),> 100 µM (inactive),> 100 µM (inactive),> 100 µM (inactive),,> 100 µM (inactive),> 100 µM (inactive),50.1 µM (inactive),> 100 µM (inactive)
C=C(c1ccccc1)c1ccccc1-c1cc(-c2ccccc2)cc(-c2ccccc2)n1,> 100 µM (inactive),> 100 µM (inactive),99.5 µM (inactive),> 100 µM (inactive),> 100 µM (inactive),> 100 µM (inactive),> 100 µM (inactive),> 100 µM (inactive),> 100 µM (inactive),,> 100 µM (inactive),> 100 µM (inactive),> 100 µM (inactive),> 100 µM (inactive),> 100 µM (inactive),> 100 µM (inactive),74.6 µM (inactive)
CC(=O)c1c(C)cn(S(=O)(=O)NC(=O)Nc2nncs2)c1C,> 100 µM (inactive),> 100 µM (inactive),> 100 µM (inactive),> 100 µM (inactive),> 100 µM (inactive),> 100 µM (inactive),49.2 µM (inactive),> 100 µM (inactive),> 100 µM (inactive),> 100 µM (inactive),> 100 µM (inactive),> 100 µM (inactive),,> 100 µM (inactive),> 100 µM (inactive),> 100 µM (inactive),> 100 µM (inactive)
